# Assay results from patent publication US10278942B2 (PELOTON THERAPEUTICS, INC., priority 2015, dated 2019).
# Molecular target: T1, HIF-2α HIS TAG-PASB Domain (Homo sapiens, UniProt Q99814)
# T1 construct: 100 nM HIF-2α HIS TAG-PASB Domain
# Assay: HIF-2α Scintillation Proximity Assay (SPA)
# Format: binding
# Settings: Scintillation Proximity Assay IC50 (nM)
# How it was run: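 IC50 values rest on percent inhibition, where the sample signal is scaled between high and low controls. Wells contain about 100 μL: compound dispensed as 2 μL of DMSO solution, 88 μL protein-probe mix and 10 μL of beads.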
# T1 sequence (Q99814 240-350 limits assumed): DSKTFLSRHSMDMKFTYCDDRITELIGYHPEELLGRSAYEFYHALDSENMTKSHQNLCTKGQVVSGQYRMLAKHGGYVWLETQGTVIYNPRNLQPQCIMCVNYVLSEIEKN
row,Compound,IC50 [nM]
1,O=Cc1cc(S(=O)(=O)C(F)(F)F)ccc1Oc1cc(F)cc(Cl)c1 [Compound 123],< 50
2,O=S(=O)(c1ccc(Oc2cc(F)cc(Cl)c2)c(Cl)c1)C(F)(F)F [Compound 128],50 to 249

# Same assay, conditions: read-out: Scintillation Proximity Assay IC50
row,Compound,IC50 [nM]
1,O=S(=O)(c1ccc(Oc2cc(F)cc(Cl)c2)c(CO)c1CO)C(F)F [Compound 87],> 1000
2,CS(=O)(=O)c1ccc(Oc2cc(F)cc(C#N)c2)c2c1C(O)C1(CC1)C2 (stereo not shown) [Compound 217],> 1000
3,CC(C)(C)OC(=O)NCc1c(S(=O)(=O)C(F)F)ccc(Oc2cc(F)cc(Cl)c2)c1Br [Compound 83],> 1000
4,O=S(=O)(c1ccc(Oc2cc(F)cc(Cl)c2)c(Cl)c1CNC1CCCOC1)C(F)F (stereo not shown) [Compound 49],> 1000
5,N#Cc1c(I)ccc(Oc2cc(F)cc(Cl)c2)c1Br [Compound 96],> 1000
6,N#Cc1cc(F)cc(Oc2ccc(Br)c3c2C(F)(F)C(F)(F)C3)c1 [Compound 248],> 1000

# Next, values leading:
row,IC50 [nM],Compound
1,> 1000,CN(C)C(=O)COc1ccc(S(=O)(=O)C(F)(F)F)c2c1CC(F)(F)C2O (stereo not shown) [Compound 632]
2,> 1000,O=S(=O)(c1ccc(CCO)c2c1C(O)C(F)(F)C2)C(F)(F)F (stereo not shown) [Compound 520]
3,> 1000,COCCNC1c2c(ccc(Oc3cc(F)cc(C#N)c3)c2C(F)F)S(=O)(=O)C1(F)F (stereo not shown) [Compound 382]
4,> 1000,CCOc1ccc2c(c1C(F)F)[C@@H](O)C(F)(F)S2(=O)=O [Compound 438]
5,> 1000,CS(=O)(=O)c1ccc(Oc2cncc(F)c2)c2c1[C@H](O)C(F)(F)[C@H]2F [Compound 330]
6,> 1000,N#Cc1cc(F)cc(Oc2ccc3c(c2Br)C(=O)C(F)(F)S3(=O)=O)c1 [Compound 393]
7,> 1000,CS(=O)(=O)c1ccc(Nc2cncc(Cl)c2)c2c1C(O)C(F)(F)C2 (stereo not shown) [Compound 500]
8,> 1000,CC1(C)C[C@@H](O)C[C@H](c2ccc(S(=O)(=O)C(F)(F)F)c3c2CC(F)(F)[C@H]3O)C1 [Compound 552]
9,> 1000,"O=S(=O)(c1ccc(N2CCOCC2)c2c1[C@H](O)C(F)(F)C2)C(F)(F)F [Compound 490, (S)-2,2-difluoro-4-morpholino-7-((trifluoromethyl)sulfonyl)-2,3-dihydro-1H-inden-1-ol]"
10,> 1000,CS(=O)(=O)c1ccc(O[C@H]2C[C@@H](C(N)=O)C2)c2c1[C@H](O)C(F)(F)[C@@H]2F [Compound 763]
11,> 1000,O=S(=O)(c1ccc(O[C@H]2CCCc3cn[nH]c32)c2c1[C@H](O)C(F)(F)C2)C(F)(F)F [Compound 732]
12,< 50,N#CN=S(=O)(CF)c1ccc(Oc2cc(F)cc(C#N)c2)c2c1[C@H](O)C(F)(F)C2 (stereo partly shown) [Compound 286]
13,> 1000,CCOc1ccc(C(F)(F)F)c2c1CC[C@H]2O [Compound 673]
14,> 1000,CN1CCCC(Oc2ccc(S(=O)(=O)C(F)(F)F)c3c2CC(F)(F)C3O)C1 (stereo not shown) [Compound 634]
15,> 1000,CC(Oc1ccc(S(=O)(=O)C(F)(F)F)c2c1CC(F)(F)C2O)c1ccccc1 (stereo not shown) [Compound 664]
16,> 1000,Cn1nccc1-c1ccc(S(=O)(=O)C(F)(F)F)c2c1CC(F)(F)[C@H]2O [Compound 559]
17,> 1000,O=S(=O)(c1ccc(OCC2CC2)c2c1C(O)CC2)C(F)(F)F (stereo not shown) [Compound 597]
18,> 1000,O=S1(=O)C[C@H](O)c2c1ccc(Oc1cccc(F)c1)c2Br [Compound 419]
19,> 1000,O=S(=O)(c1ccc(OC2CCNC2)c2c1C(O)C(F)(F)C2)C(F)(F)F (stereo not shown) [Compound 643]
20,> 1000,CC(Oc1ccc(S(=O)(=O)C(F)(F)F)c2c1CC(F)(F)C2O)C(N)=O (stereo not shown) [Compound 649]

# Tested on: 786-O-Hif-Luc cells
# Assay: Luciferase Assay (HIF responsive elements reporter)
# Settings: read-out: Mean Luciferase EC50 (nM)
# Method: A pool of infected cells were then selected against 2 μg/mL of puromycin (P8833, Sigma) for 10 days followed by limited dilution to select single clones. […] Each concentration was tested in triplicate. After about 24 hours, luciferase activity was determined using ONE-Glo Luciferase Assay Reagent (E6110, Promega) following the manufacturer's recommended procedure. EC50 were calculated using Dotmatics software.
row,Compound,EC50 [nM]
1,[2H][C@]1(O)c2c(S(C)(=O)=O)ccc(Oc3cc(F)cc(C#N)c3)c2CC1(F)F [Compound 247],< 50
2,CNS(=O)(=O)c1ccc(Oc2cc(F)cc(C#N)c2)c2c1[C@H](O)C(F)(F)C2 [Compound 254],50 to 249
3,N#Cc1cc(F)cc(Oc2ccc(S(N)(=O)=O)c3c2CC(F)(F)[C@H]3O)c1 [Compound 252],50 to 249
4,"CS(=O)(=O)c1ccc(Oc2cc(F)cc(C#N)c2)c2c1[C@H](O)C(F)(F)C2 [Compound 163, (S)-3-((2,2-Difluoro-1-hydroxy-7-(methylsulfonyl)-2,3-dihydro-1H-inden-4-yl)oxy)-5-fluorobenzonitrile]",< 50
5,CS(=O)(=O)c1ccc(Oc2cc(F)cc(C#N)c2)c2c1[C@H](O)[C@H](F)C2 [Compound 231],< 50
6,CNS(=O)(=O)c1ccc(Oc2cc(F)cc(F)c2)c2c1[C@H](O)C(F)(F)C2 [Compound 251],50 to 249
7,CS(=O)(=O)c1ccc(Oc2cc(F)cc(C#N)c2)c2c1C(O)C(F)C2 (stereo not shown) [Compound 232],< 50
8,C[C@H]1C[C@@H](O)c2c(S(=O)(=O)C(F)F)ccc(Oc3cc(F)cc(Cl)c3)c21 [Compound 7a],250 to 1000
9,CS(=O)(=O)c1ccc(Oc2cc(F)cc(C#N)c2)c2c1[C@H](N)C(F)(F)C2 [Compound 165],50 to 249
10,N#Cc1cncc(Oc2ccc(S(=O)(=O)C(F)(F)F)c3c2CC(F)(F)[C@H]3O)c1 [Compound 235],< 50
11,CS(=O)(=O)c1ccc(Oc2cc(F)cc(C#N)c2)c2c1C(O)C(F)(F)C2 (stereo not shown) [Compound 223],50 to 249
12,"CS(=O)(=O)c1ccc(Oc2cc(F)cc(C#N)c2)c2c1[C@H](O)[C@H](F)[C@@H]2F [Compound 289, 3-[(1S,2S,3R)-2,3-difluoro-1-hydroxy-7-methylsulfonyl-indan-4-yl]oxy-5-fluoro-benzonitrile]",< 50
13,[2H]C([2H])([2H])S(=O)(=O)c1ccc(Oc2cc(F)cc(C#N)c2)c2c1[C@]([2H])(O)C(F)(F)C2 [Compound 229],< 50
14,CCS(=O)(=O)c1ccc(Oc2cc(F)cc(C#N)c2)c2c1[C@H](O)C(F)(F)C2 [Compound 206],50 to 249
15,N#Cc1cc(F)cc(Oc2ccc(S(=O)(=O)C(F)(F)F)c3c2CC[C@H]3O)c1 [Compound 57],50 to 249
16,CS(=O)(=O)c1ccc(Oc2cc(F)cc(C#N)c2)c2c1[C@@H](O)C(F)(F)C2 [Compound 226],> 1000
17,N#Cc1cccc(Oc2ccc(S(=O)(=O)C(F)F)c3c2CC[C@H]3O)c1 [Compound 156],250 to 1000
18,N#Cc1cc(Cl)cc(Oc2ccc(S(=O)(=O)CF)c3c2CC(F)(F)[C@H]3O)c1 [Compound 167],< 50

# Results, then the compound that gave them:
row,EC50 [nM],Compound
1,< 50,N#Cc1cc(F)cc(Oc2ccc(S(N)(=O)=O)c3c2[C@@H](F)C(F)(F)[C@H]3O)c1 [Compound 338]
2,250 to 1000,CS(=O)(=O)c1ccc(Oc2cc(F)cc(C#N)c2)c2c1[C@H](O)[C@@H](F)C2 [Compound 271]
3,50 to 249,N#Cc1cc(F)cc(Oc2ccc(S(=O)(=O)C(F)(F)F)c3c2CC(F)(F)[C@H]3N)c1 [Compound 290]
4,< 50,NS(=O)(=O)c1ccc(Oc2cc(F)cc(F)c2)c2c1[C@H](O)C(F)(F)C2 [Compound 256]
5,250 to 1000,N#Cc1cc(F)cc(Oc2ccc(S(N)(=O)=O)c3c2[C@H](F)C(F)(F)[C@H]3O)c1 [Compound 339]

# Same assay, conditions: read-out: Mean Luciferase EC50 (nM), 786-O-Hif-Luc cells
row,Compound,EC50 [nM]
1,CS(=O)(=O)c1ccc(Oc2cc(F)cc(C#N)c2)c2c1C(O)CC2 (stereo not shown) [Compound 222],> 1000
2,Cc1c(S(C)(=O)=O)ccc(Oc2cc(F)cc(Cl)c2)c1C#N [Compound 50],> 1000
3,CS(=O)(=O)c1ccc(Oc2cc(F)cc(Cl)c2)c(C(F)F)c1CO [Compound 54],250 to 1000
4,"N#Cc1cc(F)cc(Oc2ccc(S(=O)(=O)C(F)F)c3c2CC(F)(F)[C@H]3O)c1 [Compound 15, 3-[(1S)-7-(difluoromethylsulfonyl)-2,2-difluoro-1-hydroxy-indan-4-yl]oxy-5-fluoro-benzonitrile]",< 50
5,O=S(=O)(c1ccc(Oc2cncc(Cl)c2)c2c1[C@H](O)C(F)(F)C2)C(F)F [Compound 25],< 50
6,N#Cc1cc(F)cc(Oc2ccc(S(=O)(=O)C(F)F)c(CO)c2Cl)c1 [Compound 42],250 to 1000
7,N#Cc1cc(F)cc(Oc2ccc(S(=O)(=O)C(F)F)c3c2CC(F)(F)[C@@H]3O)c1 [Compound 237],50 to 249
8,O=S(=O)(CF)c1ccc(Oc2cc(F)cc(Cl)c2)c2c1[C@H](O)CC2 [Compound 61],50 to 249
9,N#Cc1cc(F)cc(Oc2ccc(S(=O)(=O)CCl)c3c2CC(F)(F)[C@H]3O)c1 [Compound 215],< 50
10,Cn1cc(Oc2ccc(S(=O)(=O)C(F)(F)F)c3c2CC(F)(F)[C@H]3O)cn1 [Compound 224],50 to 249
11,N#Cc1cccc(Oc2ccc(S(=O)(=O)C(F)F)c(CO)c2Cl)c1 [Compound 43],250 to 1000
12,O=S(=O)(c1ccc(Oc2ccc(F)c3[nH]ncc23)c2c1C(O)C(F)(F)C2)C(F)(F)F (stereo not shown) [Compound 241],50 to 249

# Further lines, results first:
row,EC50 [nM],Compound
1,250 to 1000,CC1(C#N)CC(Oc2ccc(S(C)(=O)=O)c3c2[C@@H](F)C(F)(F)[C@H]3O)C1 (stereo partly shown) [Compound 766]
2,< 50,O=S(=O)(c1ccc(Oc2ccc(F)c3[nH]ncc23)c2c1[C@H](O)C(F)(F)C2)C(F)(F)F [Compound 266]
3,250 to 1000,CS(=O)(=O)c1ccc(Oc2cc(F)cc(C#N)c2)c2c1[C@H](O)[C@H](F)[C@H]2F [Compound 294]
4,50 to 249,N#Cc1cc(F)cc(Oc2ccc(S(N)(=O)=O)c3c2[C@@H](F)[C@@H](F)[C@H]3O)c1 [Compound 336]
5,250 to 1000,CS(=O)(=O)c1ccc(Oc2cc(F)cc(C#N)c2)c2c1[C@H](O)CC2 [Compound 287]
6,> 1000,O=[N+]([O-])c1ccc(Oc2cc(F)cc(Cl)c2)c2c1C(O)CC2 (stereo not shown) [Compound 255]
7,50 to 249,O=S1(=O)c2ccc(Oc3cc(F)cc(F)c3)c(C(F)F)c2C(O)C1F (stereo not shown) [Compound 369]
8,> 1000,N#CC1(COc2ccc3c(c2C(F)F)C(O)C(F)(F)S3(=O)=O)CC1 (stereo not shown) [Compound 455]
9,250 to 1000,N[C@@H]1c2c(ccc(Oc3cc(F)cc(Br)c3)c2Br)S(=O)(=O)C1(F)F [Compound 462]
10,> 1000,CC(C)Oc1ccc2c(c1C#N)C(C)(O)C(F)(F)S2(=O)=O (stereo not shown) [Compound 456]
